Reference: patent US20250345318A1, “COMPOUND AND USE THEREOF IN PREVENTING OR TREATING RADIATION DAMAGE” (SIMCERE PHARMACEUTICAL CO., LTD., priority 2022, published 2025)

Experiments:
[1] = system: SPCA-1 cells transfected with JWA-knockdown plasmids; assay: Colony formation of SPCA-1 cells transfected with JWA-knockdown plasmids (Example 22); format: cell-based, human; conditions: JAC4-treated JWA-knockdown SPCA-1 vs JAC4-treated si-Control
Procedure: (§1) 1. SPCA-1 and BEAS-2B cells (or SPCA-1 and BEAS-2B cells transfected with JWA-knockdown plasmids) in the exponential growth phase were plated in 6-well plates at a specific amount. The number of plated cells is as follows
(§2) 2. After the cells adhered to the container wall, the cells were treated (or not treated) with […] JAC4 and treated with X-ray of 0, 2, 4, or 6 Gy. The medium was replaced with a fresh medium containing JAC4 at the corresponding concentration once every 2 days (or the cells were treated with X-ray of 0, 2, 4, or 6 Gy after adhesion, and the medium was replaced with a fresh medium once every 2 days).
(§3) 3. After the cells were cultured for 10-14 days, colonies were visually observed. The culture medium was discarded, and the cells were fixed with methanol for 10-20 min, stained with crystal violet for 10 min, slowly washed with flowing clear water thrice, photographed, and counted for colonies containing>50 cells.
4. The colony forming efficiency (CFE)=(number of colonies formed/number of seeded cells) 100% was calculated, and the cell survival fraction (SF)=(colony forming efficiency of treatment group/colony forming efficiency of 0 Gy group)×100% was calculated from the colony forming efficiency. […]

C57BL/6 male mice = assay: Blood biochemistry after total body irradiation (Example 3); format: in vivo
Procedure: C57BL/6 male mice (24.8±1,6 g in body weight) aged 10 weeks were divided into 4 groups of 8 mice each. After acclimating to the environment, JAC4 (100 mg/kg) or an equal volume of vehicle (polyethylene glycol:ethanol:physiological saline=47.5:7.5:50, v/v/v) was orally administered to the mice once daily for 7 consecutive days. After that, the mice in one JAC4 treatment group and one vehicle group were subjected to total body X-ray irradiation (6 Gy) and JAC4 or vehicle treatment was continued. After 3 days, the administration of JAC4 or vehicle was discontinued, and blood samples, small intestine tissues, and thymus and spleen tissues were collected 4 days later.
The biochemical results of the mice were tested, with procedures as follows: Peripheral blood was collected from the orbit into an ethylenediaminetetraacetic acid K3 tube, followed by immediate blood biochemistry analysis on a blood analyzer.

SPCA-1 cells = assay: Plate colony formation, SPCA-1 (Example 22); format: cell-based, human
Procedure: The cell proliferation capacity was determined by a plate colony formation experiment, with the following specific procedures.
as §1, §2, §3
4. The colony forming efficiency (CFE)=(number of colonies formed/number of seeded cells) 100% was calculated, and the cell survival fraction (SF)=(colony forming efficiency of treatment group/colony forming efficiency of 0 Gy group)×100% was calculated from the colony forming efficiency.

IEC-6 cells = assay: Early apoptosis by Annexin V-PI staining in irradiated IEC-6 cells (Example 13); format: cell-based; conditions: 1 μM JAC4 24 h + 12 Gy X-ray, 24 h after
Procedure: The apoptosis of IEC-6 cells was determined by Annexin V-PI staining and the early apoptosis rates of IEC-6 cells after different treatments were summarized (***p<0.001). The procedures for the detection by Annexin V-PI staining are as follows: IEC-6 cells were seeded in a 6-well plate at 2×10^5 cells/well. After adhesion, the cells were treated with 1 μM JAC4 or DMSO for 24 h and subjected to 12 Gy of X-ray radiation. After 24 h, the cells were harvested in PBS and analyzed using the Annexin V apoptosis detection kit (BD, FACS AriaIII, USA) on a flow cytometer.

[2] = non-radiation, JAC4 100 mg/kg oral

How did the “cell survival rate (radiosensitization curve)” value [1] turn out when `c1ccc(CSc2nnc(C3COc4ccccc4O3)o2)nc1` (centres unmarked) [JAC4] was run?
Its value is “significantly increased”.

And the “number of colonies formed” value [1]?
Its value is “significantly higher”.

And the ALT (C57BL/6 male mice; JAC4 100 mg/kg oral + TBI 6 Gy)?
The ALT was 31.33±3.14 U/L.

And the AST (C57BL/6 male mice; JAC4 100 mg/kg oral + TBI 6 Gy)?
The AST was 110.17±20.86 U/L.

And the CK-MB (C57BL/6 male mice; JAC4 100 mg/kg oral + TBI 6 Gy)?
The CK-MB was 437.67±90.38 U/L.

And the LDH (C57BL/6 male mice; JAC4 100 mg/kg oral + TBI 6 Gy)?
Its LDH is 888.67±81.48 U/L.

What about the SOD (C57BL/6 male mice; JAC4 100 mg/kg oral + TBI 6 Gy) of the same compound?
The SOD was 133.00±6.96 U/mL.

What about the ALT (C57BL/6 male mice; [2]) of the same compound?
The ALT was 47.17±14.81 U/L.

And the AST (C57BL/6 male mice; [2])?
The AST was 140.83±38.72 U/L.

And the CK-MB (C57BL/6 male mice; [2])?
Its CK-MB is 565.50±261.37 U/L.

And the LDH (C57BL/6 male mice; [2])?
Its LDH is 444.00±94.58 U/L.

What about the “cell survival (radiosensitization curve)” value (SPCA-1 cells; SPCA-1, 10 μM JAC4 + X-ray vs X-ray monotherapy) of the same compound?
Its value is “significantly reduced”.

And the “number of colonies formed” value (SPCA-1 cells; SPCA-1, JAC4 in combination with X-ray)?
The value was “decreased”.

And the “early apoptosis rate (Annexin V-PI)” value (IEC-6 cells)?
Its value is 5.74±0.80%.
